Results published in patent publication US10918645B2 (LIFEARC, priority 2016, dated 2021).

Legend:
Format in all cases: biochemical
Conditions in all cases: 1 μM inhibitor concentration
NUAK1 = NUAK1 (Homo sapiens (Human), UniProt O60285); assay: NUAK1 kinase selectivity assay
Experimental: (§1) NUAK1 (5-20 mU diluted in 50 mM Tris pH 7.5, 0.1 mM EGTA, 0.1% 0-mercaptoethanol, 1 mg/ml BSA) is assayed against […] in a final volume of 25.5 μl containing 50 mM Tris pH 7.5, 0.1 mM EGTA, 0.3 mM […], 10 mM magnesium acetate and 0.02 mM [33P-γ-ATP] (50-1000 cpm/pmole) and incubated for 30 min at room temperature. Assays are stopped by addition of 5 μl of 0.5 M (3%) orthophosphoric acid and then harvested onto P81 Unifilter plates with a wash buffer of 50 mM orthophosphoric acid.

HIPK2 = HIPK2 (Homo sapiens (Human), UniProt Q9H2X6); assay: HIPK2 kinase selectivity assay
Experimental: (§2) 5-20 mU of HIPK2 (diluted in 50 mM Tris (pH 7.5), 0. mM EGTA, 1 mg/ml BSA, 0.1%, b-Mercaptoethanol) is assayed against MBP in a final volume of 25.5 μl containing 50 mM Tris (pH 7.5), 0.1 mM EGTA, 0.1%, b-Mercaptoethanol, 0.33 mg/ml MBP, 10 mM magnesium acetate and 0.005 mM [33P-g-ATP](500-1000 cpm/pmole) and incubated for 30 mins at room temperature. Assays are stopped by addition of 5 μl of 0.5M (3%) orthophosphoric acid. Assays are harvested onto P81 Unifilter plates using a wash buffer of 50 mM orthophosphoric acid.

CDK2-CyclinA = CDK2-CyclinA (Homo sapiens (Human), UniProt P24941); assay: CDK2-CyclinA kinase selectivity assay
Experimental: CDK2/cyclin A (5-20 mU diluted in 50 mM Hepes pH 7.5, 1 mM DTT, 0.02% Brij35, 100 mM NaCl) is assayed against Histone H1 in a final volume of 25.5 μl containing 50 mM Hepes pH7.5, 1 mM DTT, 0.02% Brij35, 100 mM NaCl, Histone H1 (1 mg/ml), 10 mM magnesium acetate and 0.02 mM [33P-g-ATP](500-1000 cpm/pmole) and incubated for 30 min at room temperature. Assays are stopped by addition of 5 μl of 0.5 M (3%) orthophosphoric acid and then harvested onto P81 Unifilter plates with a wash buffer of 50 mM orthophosphoric acid.

GCK = GCK (Homo sapiens (Human), UniProt Q12851); assay: GCK kinase selectivity assay
Experimental: GCK (5-20 mU diluted in 50 mM Tris pH 7.5, 0.1 mM EGTA, 0.1% β-mercaptoethanol, 1 mg/ml BSA) is assayed against MBP in a final volume of 25.5 μl containing 50 mM Tris pH 7.5, 0.1 mM EGTA, 0.33 mg/ml MBP, 10 mM magnesium acetate and 0.02 mM [33P-γ-ATP] (50-1000 cpm/pmole) and incubated for 30 min at room temperature. Assays are stopped by addition of 5 μl of 0.5 M (3%) orthophosphoric acid and then harvested onto P81 Unifilter plates with a wash buffer of 50 mM orthophosphoric acid.

ERK1 = ERK1 (Homo sapiens (Human), UniProt P27361); assay: ERK1 kinase selectivity assay
Experimental: as §2, with “mU of ERK1 (diluted in” for “mU of HIPK2 (diluted in”, “(pH 7.5), 0.1 mM EGTA,” for “(pH 7.5), 0. mM EGTA,”

CK1δ = CK1δ (Homo sapiens (Human), UniProt P48730); assay: CK1 kinase selectivity assay
Experimental: CK1 (5-20 mU diluted in 20 mM Hepes pH7.5, 0.15 M NaCl, 0.1 mM EGTA, 0.1% Triton X-100, 5 mM DTT, 50% glycerol) is assayed against CKI peptide ([…]) in a final volume of 25.5 μl containing 20 mM Hepes pH 7.5, 0.15 M NaCl, 0.1 mM EDTA, 5 mM DTT, 0.1% Triton-X 100, CKI peptide (0.5 mM), 10 mM magnesium acetate and 0.02 mM [33P-g-ATP](500-1000 cpm/pmole) and incubated for 30 min at room temperature. Assays are stopped by addition of 5 μl of 0.5 M (3%) orthophosphoric acid and then harvested onto P81 Unifilter plates with a wash buffer of 50 mM orthophosphoric acid.

MNK2 = MNK2 (Homo sapiens (Human), UniProt Q9HBH9); assay: MNK2 kinase selectivity assay
Experimental: 5-20 mU of MNK2 (diluted in 50 mM Tris (pH 7.5), 0.1 mM EGTA, 1 mg/ml BSA, 0.1%, b-Mercaptoethanol) is assayed against substrate peptide (eIF4E) in a final volume of 25.5 μl containing 50 mM Tris (pH 7.5), 0.1 mM EGTA, 0.1%, b-Mercaptoethanol, 0.5 mg/ml substrate peptide, 10 mM magnesium acetate and 0.05 mM [33P-g-ATP](500-1000 cpm/pmole) and incubated for 30 mins at room temperature. Assays are stopped by addition of 5 μl of 0.5M (3%) orthophosphoric acid. Assays are harvested onto P81 Unifilter plates using a wash buffer of 50 mM orthophosphoric acid.

LKB1 = LKB1 (Homo sapiens (Human), UniProt Q15831); assay: LKB1 kinase selectivity assay
Experimental: as §1, with “LKB1” for “NUAK1”, “β-mercaptoethanol,” for “0-mercaptoethanol,”, “0.2” for “0.3”

ULK2 = ULK2 (Homo sapiens (Human), UniProt Q8IYT8); assay: ULK2 kinase selectivity assay
Chain of ULK2 (Q8IYT8 whole entry, species assumed): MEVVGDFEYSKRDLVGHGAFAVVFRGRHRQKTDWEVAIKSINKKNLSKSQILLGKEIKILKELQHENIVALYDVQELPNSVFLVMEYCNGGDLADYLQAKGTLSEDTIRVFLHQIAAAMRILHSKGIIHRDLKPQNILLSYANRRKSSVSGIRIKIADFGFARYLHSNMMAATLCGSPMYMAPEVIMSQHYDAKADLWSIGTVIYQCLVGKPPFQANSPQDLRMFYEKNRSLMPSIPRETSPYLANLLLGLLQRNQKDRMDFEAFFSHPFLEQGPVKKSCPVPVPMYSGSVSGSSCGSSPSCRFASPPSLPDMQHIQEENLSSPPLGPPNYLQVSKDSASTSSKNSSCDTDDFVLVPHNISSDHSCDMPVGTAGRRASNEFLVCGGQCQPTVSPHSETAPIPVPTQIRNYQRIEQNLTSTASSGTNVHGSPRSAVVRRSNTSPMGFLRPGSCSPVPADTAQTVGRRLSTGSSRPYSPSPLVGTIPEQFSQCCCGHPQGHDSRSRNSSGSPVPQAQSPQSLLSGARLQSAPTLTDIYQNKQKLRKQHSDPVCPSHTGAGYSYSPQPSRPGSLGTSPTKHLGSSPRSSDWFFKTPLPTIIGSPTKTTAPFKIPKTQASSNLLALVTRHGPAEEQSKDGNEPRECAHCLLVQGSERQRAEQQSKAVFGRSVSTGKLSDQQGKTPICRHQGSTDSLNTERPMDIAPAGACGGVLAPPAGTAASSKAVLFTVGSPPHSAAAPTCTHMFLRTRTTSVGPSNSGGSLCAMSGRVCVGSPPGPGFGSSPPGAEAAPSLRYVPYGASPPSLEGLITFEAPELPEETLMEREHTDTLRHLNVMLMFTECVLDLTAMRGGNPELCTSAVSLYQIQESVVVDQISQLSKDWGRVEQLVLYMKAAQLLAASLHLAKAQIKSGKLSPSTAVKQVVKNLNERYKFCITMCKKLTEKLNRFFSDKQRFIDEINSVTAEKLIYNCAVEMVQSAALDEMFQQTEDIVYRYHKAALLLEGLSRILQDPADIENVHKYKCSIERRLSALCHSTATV

Chain of ERK1 (P27361 whole entry, species assumed): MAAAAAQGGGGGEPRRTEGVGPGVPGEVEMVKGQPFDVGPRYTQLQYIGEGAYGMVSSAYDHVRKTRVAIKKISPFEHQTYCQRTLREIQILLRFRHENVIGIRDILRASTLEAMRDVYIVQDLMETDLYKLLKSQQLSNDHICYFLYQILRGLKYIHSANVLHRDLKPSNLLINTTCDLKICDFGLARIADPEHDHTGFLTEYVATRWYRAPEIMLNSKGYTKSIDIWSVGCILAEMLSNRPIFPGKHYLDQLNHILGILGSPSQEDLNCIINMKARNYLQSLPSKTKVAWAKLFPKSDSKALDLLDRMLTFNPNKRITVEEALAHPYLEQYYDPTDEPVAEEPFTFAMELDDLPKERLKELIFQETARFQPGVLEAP
Chain of HIPK2 (Q9H2X6 whole entry, species assumed): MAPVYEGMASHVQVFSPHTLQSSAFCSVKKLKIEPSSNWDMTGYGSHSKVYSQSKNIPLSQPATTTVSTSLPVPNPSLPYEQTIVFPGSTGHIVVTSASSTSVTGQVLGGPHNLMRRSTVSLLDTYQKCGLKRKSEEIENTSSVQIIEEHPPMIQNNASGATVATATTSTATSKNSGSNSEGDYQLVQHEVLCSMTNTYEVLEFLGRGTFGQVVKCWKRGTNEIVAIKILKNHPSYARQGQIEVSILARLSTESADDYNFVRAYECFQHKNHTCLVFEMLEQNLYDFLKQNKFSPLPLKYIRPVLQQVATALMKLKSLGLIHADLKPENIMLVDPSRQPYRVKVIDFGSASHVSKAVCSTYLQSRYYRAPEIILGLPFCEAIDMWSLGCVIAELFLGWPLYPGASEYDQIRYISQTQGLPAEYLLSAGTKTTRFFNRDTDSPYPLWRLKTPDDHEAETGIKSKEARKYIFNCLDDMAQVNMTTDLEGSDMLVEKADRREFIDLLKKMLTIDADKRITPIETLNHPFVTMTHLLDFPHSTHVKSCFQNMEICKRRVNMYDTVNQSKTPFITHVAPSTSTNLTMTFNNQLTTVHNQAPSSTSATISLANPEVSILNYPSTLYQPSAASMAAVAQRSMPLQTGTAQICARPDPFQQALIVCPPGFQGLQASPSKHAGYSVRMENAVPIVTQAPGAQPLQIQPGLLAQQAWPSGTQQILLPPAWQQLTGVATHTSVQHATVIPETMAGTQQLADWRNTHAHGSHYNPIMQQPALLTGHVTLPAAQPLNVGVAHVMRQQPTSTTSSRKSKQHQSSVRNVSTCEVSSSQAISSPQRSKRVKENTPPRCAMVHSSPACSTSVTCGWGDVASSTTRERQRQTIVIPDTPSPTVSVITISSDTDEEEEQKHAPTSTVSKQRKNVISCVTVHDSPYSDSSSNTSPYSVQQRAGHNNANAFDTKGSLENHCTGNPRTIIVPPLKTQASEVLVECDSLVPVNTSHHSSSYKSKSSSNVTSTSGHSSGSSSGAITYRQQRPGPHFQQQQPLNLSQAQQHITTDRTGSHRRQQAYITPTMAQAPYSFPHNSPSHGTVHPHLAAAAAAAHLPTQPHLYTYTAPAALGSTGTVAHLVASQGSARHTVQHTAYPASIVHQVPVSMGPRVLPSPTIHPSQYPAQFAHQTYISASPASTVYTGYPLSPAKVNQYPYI
Chain of GCK (Q12851 whole entry): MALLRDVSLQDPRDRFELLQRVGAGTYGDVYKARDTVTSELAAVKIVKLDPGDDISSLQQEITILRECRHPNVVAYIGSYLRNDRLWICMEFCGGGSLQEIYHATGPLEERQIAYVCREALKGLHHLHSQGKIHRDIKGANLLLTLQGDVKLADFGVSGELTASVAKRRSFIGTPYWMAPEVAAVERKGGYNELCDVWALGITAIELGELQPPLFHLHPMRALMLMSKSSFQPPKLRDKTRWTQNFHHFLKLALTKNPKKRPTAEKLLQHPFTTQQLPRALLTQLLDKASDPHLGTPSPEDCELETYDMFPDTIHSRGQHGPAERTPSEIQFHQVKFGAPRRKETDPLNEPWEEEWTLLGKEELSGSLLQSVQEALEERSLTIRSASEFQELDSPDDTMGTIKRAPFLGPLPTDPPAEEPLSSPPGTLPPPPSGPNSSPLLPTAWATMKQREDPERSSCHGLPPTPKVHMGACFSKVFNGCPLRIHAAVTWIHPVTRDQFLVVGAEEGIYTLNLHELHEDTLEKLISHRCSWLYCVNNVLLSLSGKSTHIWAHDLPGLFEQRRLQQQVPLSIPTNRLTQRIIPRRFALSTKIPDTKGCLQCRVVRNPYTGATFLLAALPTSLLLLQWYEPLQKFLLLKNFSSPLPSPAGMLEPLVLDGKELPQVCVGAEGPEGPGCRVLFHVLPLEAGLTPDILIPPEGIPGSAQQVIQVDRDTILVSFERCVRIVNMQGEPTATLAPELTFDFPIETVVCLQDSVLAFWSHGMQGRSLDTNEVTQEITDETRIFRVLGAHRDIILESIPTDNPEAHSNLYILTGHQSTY
Chain of LKB1 (Q15831 whole entry, species assumed): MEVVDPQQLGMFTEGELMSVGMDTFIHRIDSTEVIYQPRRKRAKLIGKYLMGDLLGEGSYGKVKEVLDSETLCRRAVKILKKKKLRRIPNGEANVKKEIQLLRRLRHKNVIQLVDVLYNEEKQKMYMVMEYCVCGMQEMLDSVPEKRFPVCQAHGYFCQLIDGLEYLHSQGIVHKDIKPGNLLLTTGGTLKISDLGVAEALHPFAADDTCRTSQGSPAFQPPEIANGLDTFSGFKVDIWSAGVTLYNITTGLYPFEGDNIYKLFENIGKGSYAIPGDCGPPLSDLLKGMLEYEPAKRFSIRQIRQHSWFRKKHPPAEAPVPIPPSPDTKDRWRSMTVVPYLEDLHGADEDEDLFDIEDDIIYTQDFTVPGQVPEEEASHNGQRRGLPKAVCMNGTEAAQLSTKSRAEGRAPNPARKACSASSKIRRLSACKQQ
Chain of LKB1 (Q7RTN6 whole entry partner, species assumed): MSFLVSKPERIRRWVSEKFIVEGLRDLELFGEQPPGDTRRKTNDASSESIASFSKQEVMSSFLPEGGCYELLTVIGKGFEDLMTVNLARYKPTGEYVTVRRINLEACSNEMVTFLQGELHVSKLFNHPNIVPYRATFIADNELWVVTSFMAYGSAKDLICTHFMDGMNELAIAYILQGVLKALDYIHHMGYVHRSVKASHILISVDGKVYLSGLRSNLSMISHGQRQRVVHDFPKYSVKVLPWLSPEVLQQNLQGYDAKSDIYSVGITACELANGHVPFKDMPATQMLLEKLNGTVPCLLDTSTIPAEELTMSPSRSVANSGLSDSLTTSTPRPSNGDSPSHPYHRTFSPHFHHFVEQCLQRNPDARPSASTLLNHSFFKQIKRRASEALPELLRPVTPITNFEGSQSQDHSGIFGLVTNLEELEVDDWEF
Chain of LKB1 (Q9Y376 whole entry partner, species assumed): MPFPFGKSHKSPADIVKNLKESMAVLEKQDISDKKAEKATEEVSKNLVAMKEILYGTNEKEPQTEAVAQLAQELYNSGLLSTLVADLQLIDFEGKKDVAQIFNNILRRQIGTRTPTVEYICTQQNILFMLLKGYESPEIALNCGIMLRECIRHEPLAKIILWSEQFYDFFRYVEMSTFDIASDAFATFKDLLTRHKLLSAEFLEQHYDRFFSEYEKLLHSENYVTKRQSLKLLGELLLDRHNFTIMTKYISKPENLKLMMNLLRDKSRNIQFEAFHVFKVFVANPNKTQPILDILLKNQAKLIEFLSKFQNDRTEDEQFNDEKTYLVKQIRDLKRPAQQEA

| SMILES | percentage inhibition of NUAK1 (NUAK1) [percentage] | percentage inhibition of HIPK2 (HIPK2) [percentage] | percentage inhibition of CDK2-CyclinA (CDK2-CyclinA) [percentage] | percentage inhibition of GCK (GCK) [percentage] | percentage inhibition of ERK1 (ERK1) [percentage] | percentage inhibition of CK1δ (CK1δ) [percentage] | percentage inhibition of MNK2 (MNK2) [percentage] | percentage inhibition of LKB1 (LKB1) [percentage] | percentage inhibition of ULK2 (ULK2) [percentage] |
| --- | --- | --- | --- | --- | --- | --- | --- | --- | --- |
| c1cc2[nH]nc3c2c(n1)N(C1CCC1)CCC3 [Example 22, 6-cyclobutyl-6,7,8,9-tetrahydro-2H-1,2,5,6-tetraazabenzo[cd]azulene] | 8 | 11 | 16 | 56 | 0 | 0 | 0 | 20 | 12 |
| c1cc2[nH]nc3c2c(n1)N(C1CCCC1)CCC3 [Example 23, 6-cyclopentyl-6,7,8,9-tetrahydro-2H-1,2,5,6-tetraazabenzo[cd]azulene] | 17 | 3 | 0 | 41 | 0 | 0 | 0 | 16 | 1 |
| c1cc2[nH]nc3c2c(n1)N(C1CCOCC1)CCC3 [Example 29, 6-(tetrahydro-2H-pyran-4-yl)-6,7,8,9-tetrahydro-2H-1,2,5,6-tetraazabenzo[cd]azulene] | 7 | 3 | 30 | 67 | 0 | 11 | 0 | 6 | 7 |
| CN1CCC(N2Cc3ccccc3-c3n[nH]c4ccnc2c34)CC1 [Example 55] | 76 | 1 | 10 | 71 | 4 | 12 | 40 | 0 | 31 |
| CC(C)n1ncc2c1CN(C1CCN(C)CC1)c1nccc3[nH]nc-2c13 [Example 68] | 65 | 0 | 0 | 27 | 11 | 3 | 18 | 0 | 10 |
